Test results reported in patent US8263610B2, “Substituted imidazolyl-5,6-dihydrobenzo[N]isoquinoline compounds” (ArQule, Inc., priority 2008, dated 2012).

What was measured:
FGFR2(N549H) = target: T1, FGFR2(N549H) (Homo sapiens, UniProt P21802, N549H); assay: fluorescent ELISA assay for inhibitors of FGFR2 kinase; assay type: biochemical; conditions: 37 μM Pyk2 substrate, 12.5 μM ATP, 0.5 μM FGFR2 enzyme, 60 minutes
T1 construct: purchased Millipore 14-742
Protocol: The enzymatic assays described herein are conducted according to the following procedures from commercially available reagents. In one, non limiting, example, a fluorescent ELISA assay is used to identify and characterize inhibitors of FGFR2 kinase as described herein. This heterogeneous assay utilizes a biotinylated peptide with a tyrosine motif as a substrate and an anti-phospho-tyrosine antibody to measure phosphorylation of the substrate. The reaction is initiated by adding the test compound, 37 μM Pyk2 substrate (Midwest Biotech, Cat. #MBT2383), 12.5 μM ATP (Roche, Cat. #11 140 965 001) and 0.5 μM FGFR2 enzyme (Millipore, Cat. #14-742) sequentially to a non-binding polypropylene V-well plate. All reagents are in an assay buffer consisting of: 50 mM Tris-HCL, 0.02 mg/ml BSA, 10 mM MgCl2, 0.1 mM Na3VO4, 1 mM EGTA, 75 μM ATP, 0.01% NP-40, 2 mM DTT and 10% glycerol. The reaction is incubated for 60 minutes. As the reaction proceeds, FGFR2 phosphorylates tyrosines in the peptide. The reaction mixture is then moved to a blocked streptavidin-coated Nunc Maxisorb plate (coated with 100 ng streptavidin from Pierce (Cat. #15-124) per well), allowing for the capture of the biotinylated peptide. Peptides are captured for 30 minutes at room temperature, the phosphorylation of peptides continues during this phase. The reaction is stopped by washing the streptavidin-coated plate 6 times with TBST. Phosphorylated peptide is detected by adding anti-phospho-tyrosine antibody (Cell Signaling, Cat. #9411, diluted 1:3000) to the streptavidin-coated plate. Unbound anti-phospho-tyrosine antibody is removed by washing the streptavidin-coated plate 6 times with TBST. Secondary detection is performed using alkaline phosphatase tagged goat anti-mouse antibody (Pierce, Cat. #31320, diluted 1:4000) for one hour. Unbound secondary antibody is removed by washing the streptavidin-coated plate 6 times with TBST. The fluorescent readout is initiated by adding to the streptavidin-coated plate Promega Attophos substrate (Promega, Cat. #S1000, dilution=6 mg/10 ml), which, when dephosphorylated by alkaline phosphatase, emits a fluorescent signal of 595 nm in wavelength when excited by a signal of 400 nm in wavelength. The reading of the 595 nm signal is done on the Perkin Elmer Envision system. Compounds which prevent FGFR2 from phosphorylating the peptide result in a lower fluorescent signal. The 595 nm fluorescent signal is directly proportional to the activity of FGFR2. Thus, the inhibition of FGFR2 by compounds is monitored by the decrease in the 595 nm fluorescent signal.

MDA-MB-231 cells = assay: MTS assay, inhibition of cell growth; assay type: cell-based; conditions: Homo sapiens, compound at 10 μM, 72 hours
Protocol: (§1) MDA-MB-231, DLD-1, Kato III NCI-H1299, PACA-2 cells, were maintained at 37° C., 5% CO2 in DMEM media supplemented with 10% fetal bovine serum, penicillin/streptomycin and fungizone (Invitrogen). Cells were seeded into 96-well tissue culture plates at 3000 per well and cultured at 37° C. for 18 hours. Test compounds were dissolved and diluted to 300× in DMSO then further diluted 1:40 in DMEM before addition to cells (1:7.5 dilution). Cells were incubated with test compounds for 72 hours followed by incubation with tetrazolium compound (3-(4,5-dimethylthiazol-2-yl)-5-(3-carboxymethoxyphenyl)-2-(4-sulfophenyl)-2H-tetrazolium, inner salt; MTS) and the electron coupling reagent, phenazine methosulfate (PMS) for 4 hours. […] The ability of compounds to inhibit cell growth in this assay is correlated with the reduction of dehydrogenase enzyme activity found in metabolically active cells. The measurement of the absorbance of the formazan was assessed using an ENVISION™ (Perkin Elmer) microplate reader at 492 nm.

Kato III cells = assay: MTS assay, inhibition of cell growth; assay type: cell-based; conditions: Homo sapiens, compound at 10 μM, 72 hours
Protocol: as §1

NCI-H1299 cells = assay: MTS assay, inhibition of cell growth; assay type: cell-based; conditions: Homo sapiens, compound at 10 μM, 72 hours
Protocol: as §1

PACA-2 cells = assay: MTS assay, inhibition of cell growth; assay type: cell-based; conditions: compound at 10 μM, 72 hours
Protocol: as §1

DLD-1 cells = assay: MTS assay, inhibition of cell growth; assay type: cell-based; conditions: Homo sapiens, compound at 10 μM, 72 hours
Protocol: as §1

T1 sequence (P21802 22-821 N549H): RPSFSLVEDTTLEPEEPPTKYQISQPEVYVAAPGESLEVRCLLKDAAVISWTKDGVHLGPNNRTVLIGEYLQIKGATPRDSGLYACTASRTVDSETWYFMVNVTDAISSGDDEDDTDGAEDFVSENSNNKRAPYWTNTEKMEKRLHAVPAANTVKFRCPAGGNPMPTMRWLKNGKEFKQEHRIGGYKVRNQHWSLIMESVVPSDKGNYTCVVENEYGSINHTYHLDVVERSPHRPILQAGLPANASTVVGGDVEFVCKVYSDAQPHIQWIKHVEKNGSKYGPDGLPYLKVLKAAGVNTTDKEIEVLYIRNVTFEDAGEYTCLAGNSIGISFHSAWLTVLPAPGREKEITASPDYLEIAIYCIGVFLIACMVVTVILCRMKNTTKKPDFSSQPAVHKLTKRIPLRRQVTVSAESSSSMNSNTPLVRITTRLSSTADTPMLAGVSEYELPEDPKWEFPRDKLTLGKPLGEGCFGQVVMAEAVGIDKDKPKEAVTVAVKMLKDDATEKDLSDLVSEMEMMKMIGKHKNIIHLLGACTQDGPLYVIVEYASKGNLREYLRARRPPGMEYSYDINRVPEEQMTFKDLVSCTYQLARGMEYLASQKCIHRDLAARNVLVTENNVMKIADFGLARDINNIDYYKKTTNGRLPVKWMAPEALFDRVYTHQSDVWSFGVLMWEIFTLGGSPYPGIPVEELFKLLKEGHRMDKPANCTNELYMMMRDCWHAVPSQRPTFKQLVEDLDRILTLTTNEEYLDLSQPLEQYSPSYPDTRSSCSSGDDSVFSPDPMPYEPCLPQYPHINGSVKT

Row | Structure (SMILES) | IC50 (FGFR2(N549H)) | inhibition at 10 µM (MDA-MB-231 cells) | inhibition at 10 µM (Kato III cells) | inhibition at 10 µM (NCI-H1299 cells) | inhibition at 10 µM (PACA-2 cells) | inhibition at 10 µM (DLD-1 cells)
1 | Clc1ccc(C2Cc3cnc4[nH]ncc4c3-c3ccccc32)c(Cl)c1 (stereo not drawn) [7-(2,4-dichlorophenyl)-6,7-dihydro-3H-benzo[f]pyrazolo[3,4-c]isoquinoline] | 2.51 µM |  |  |  |  | 
2 | Clc1ccc(C2Cc3cnc4[nH]ncc4c3-c3ccccc32)cc1Cl (stereo not drawn) [7-(3,4-dichlorophenyl)-6,7-dihydro-3H-benzo[f]pyrazolo[3,4-c]isoquinoline] | 20.8 µM |  |  |  |  | 
3 | Fc1ccc(C2Cc3cnc4[nH]ncc4c3-c3ccccc32)cc1 (stereo not drawn) [7-(4-fluorophenyl)-6,7-dihydro-3H-benzo[f]pyrazolo[3,4-c]isoquinoline] | 4.07 µM |  |  |  |  | 
4 | c1ccc(C2Cc3cnc4[nH]ncc4c3-c3ccccc32)cc1 (stereo not drawn) [7-phenyl-6,7-dihydro-3H-benzo[f]pyrazolo[3,4-c]isoquinoline] | 0.224 µM |  |  |  |  | 
5 | Cc1cc(C)c2c(c1)-c1c(cnc3[nH]ncc13)CC2 [8,10-dimethyl-6,7-dihydro-3H-benzo[f]pyrazolo[3,4-c]isoquinoline] | 6.81 µM |  |  |  |  | 
6 | Fc1ccc(C2Cc3cnc4[nH]ncc4c3-c3ccccc32)cc1 (stereo not drawn) [drawing 558, 7-(4-fluorophenyl)-6,7-dihydro-3H-benzo[f]pyrazolo[3,4-c]isoquinoline] |  | 75 to 100% | 50 to 74% | 25 to 49% | 75 to 100% | 75 to 100%
7 | O=S(=O)(NC1CCc2c(cnc3[nH]ncc23)C1)c1ccccc1 (stereo not drawn) [drawing 563, N-(6,7,8,9-tetrahydro-3H-pyrazolo[3,4-c]isoquinolin-7-yl)benzenesulfonamide] |  | 75 to 100% | 75 to 100% | 25 to 49% | 75 to 100% | 75 to 100%
8 | CC(C)(C)OC(=O)N1CCc2c(cnc3[nH]ncc23)C1 [drawing 579, tert-butyl 3,6,8,9-tetrahydro-7H-pyrazolo[3,4-c][2,7]naphthyridine-7-carboxylate] |  | 75 to 100% | 75 to 100% | 75 to 100% | 75 to 100% | 75 to 100%
9 | Cc1nc(-c2cccc(NC(=O)N3CCc4c(cnc5[nH]nc(Br)c45)C3)c2)cs1 [drawing 580, 1-bromo-N-[3-(2-methyl-1,3-thiazol-4-yl)phenyl]-3,6,8,9-tetrahydro-7H-pyrazolo[3,4-c][2,7]naphthyridine-7-carboxamide] |  | < 24% | 75 to 100% | 50 to 74% | 25 to 49% | 75 to 100%
10 | O=C(c1ccccc1)c1c[nH]c2ncnc(N3CCc4c(cnc5[nH]nc(Br)c45)C3)c12 [drawing 582] |  | 50 to 74% | 75 to 100% | 75 to 100% | 75 to 100% | 50 to 74%
11 | CC(C)(C)OC(=O)N1CCc2c(cnc3[nH]nc(Br)c23)C1 [drawing 588, tert-butyl 1-bromo-3,6,8,9-tetrahydro-7H-pyrazolo[3,4-c][2,7]naphthyridine--7-carboxylate] |  | 75 to 100% | 75 to 100% | 75 to 100% | 75 to 100% | 75 to 100%
12 | CCOC(=O)CNC(=O)N1CCc2c(cnc3[nH]ncc23)C1 [ethyl N-(3,6,8,9-tetrahydro-7H-pyrazolo[3,4-c][2,7]naphthyridin-7-ylcarbonyl)glycinate] |  | 75 to 100% | 75 to 100% | 75 to 100% | 75 to 100% | 75 to 100%
13 | CC(C)(C)OC(=O)NCc1cccc(-c2n[nH]c3ncc4c(c23)CCN(C(=O)OC(C)(C)C)C4)c1 [tert-butyl 1-(3-{[(tert-butoxycarbonyl)amino]methyl}phenyl)-3,6,8,9-tetrahydro-7H-pyrazolo[3,4-c][2,7]naphthyridine--7-carboxylate] |  | 75 to 100% | 75 to 100% | 50 to 74% | 75 to 100% | 75 to 100%
